Laboratory results as given in patent publication US20220047563A1, “COMBINATION THERAPY FOR THE TREATMENT OF ESTROGEN-RECEPTOR POSITIVE BREAST CANCER” (ZENITH EPIGENETICS LTD., priority 2018, published 2022).

Legend:
Assay type in all cases: cell-based
[1] = test system: Palbo-R ZR-75-1 cells; assay: Cell viability (CellTiter Fluor), combination of Compound I with abemaciclib, Palbo-R ZR-75-1; settings: 7 days, average of CI at ED50, 75, 90 (Chou-Talalay)
Method: (§1) MCF7, Palbo-R-MCF7, ZR-75-1, Abema-R MCF7, and Palbo-R ZR-75-1 cells were plated at a density of 7,500 cells per well in 96 well flat bottom plates in 1640-RPMI media containing 10% FBS and penicillin/streptomycin and incubated for 24 hours at 37° C., 5% CO2. Media was replaced with 1640-RPM I containing 10% FBS with constant ratios of either Compound I or abemaciclib as single agents, or a combination of both drugs at four different concentrations (2× IC50, 1× IC50, 0.5× IC50, 0.25× IC50), and incubated at 37° C., 5% CO2 for 7 days. The cells were retreated as described above on the 3rd or 4th day. Triplicate wells were used for each concentration and wells containing only media with 0.1% DMSO were used as a control. […] Fluorescence at 380-400 nm Excitation/505 nm Emission was read in a fluorometer and the percentage of cell titer relative to DMSO-treated cells was calculated after correcting for background by subtracting the blank well's signal. IC50 values for single agents were calculated using the GraphPad Prism software. Quantification of synergy was done by calculating combination indices (CI) using the CalcuSyn software (Biosoft) based on the Chou-Talalay algorithm (Chou and Talalay, 1984), and averaging the CI values for the effective doses (ED) 50, 75, and 90.

[2] = test system: MCF7, Palbo-R-MCF7, ZR-75-1, Abema-R MCF7, and Palbo-R ZR-75-1 cells; assay: Cell viability (CellTiter Fluor), combination of Compound I with abemaciclib, ER+ breast cancer cell line panel; settings: 7 days
Method: as §1

[3] = test system: ZR-75-1 cells; assay: Cell viability (CellTiter Fluor), combination of Compound I with abemaciclib, ZR-75-1; settings: 7 days, average of CI at ED50, 75, 90 (Chou-Talalay)
Method: as §1

[4] = test system: Palbo-R-MCF7 cells; assay: Cell viability (CellTiter Fluor), combination of Compound I with abemaciclib, Palbo-R-MCF7; settings: 7 days, average of CI at ED50, 75, 90 (Chou-Talalay)
Method: as §1

[5] = test system: Abema-R MCF7 cells; assay: Cell viability (CellTiter Fluor), combination of Compound I with abemaciclib, Abema-R MCF7; settings: 7 days, average of CI at ED50, 75, 90 (Chou-Talalay)
Method: as §1

[6] = test system: WT-MCF7 cells; assay: Cell viability (CellTiter Fluor), combination of Compound I with abemaciclib, WT-MCF7; settings: 7 days, average of CI at ED50, 75, 90 (Chou-Talalay)
Method: as §1

[7] = test system: WT-MCF7 cells; assay: Cell viability (CellTiter Fluor), combination of Compound I with fulvestrant, MCF7; settings: 7 days
Method: MCF7 cells were plated at a density of 7,500 cells per well in 96 well flat bottom plates in phenol-red free 1640-RPMI media containing 10% charcoal-stripped FBS and penicillin/streptomycin and incubated for 24 hours at 37° C., 5% CO2. Media was replaced with phenol-red free 1640-RPM I media containing 10% charcoal-stripped FBS and penicillin/streptomycin treated with constant ratios of either Compound I or fulvestrant as single agents, or a combination of both drugs at four different concentrations (2× IC50, 1× IC50, 0.5× IC50, 0.25× IC50), and incubated at 37° C., 5% CO2 for 7 days. The cells were retreated as described above on the 3rd or 4th day. Triplicate wells were used for each concentration and wells containing only media with 0.1% DMSO were used as a control. […] Fluorescence at 380-400 nm Excitation/505 nm Emission was read in a fluorometer and the percentage of cell titer relative to DMSO-treated cells was calculated after correcting for background by subtracting the blank well's signal. IC50 values for single agents were calculated using the GraphPad Prism software. Quantification of synergy was done by calculating combination indices (CI) using the CalcuSyn software (Biosoft) based on the Chou-Talalay algorithm (Chou and Talalay, 1984), and averaging the CI values for the effective doses (ED) 50, 75, and 90.

## CNc1nc2ncc(-c3c(C)noc3C)cc2n1Cc1ccccc1 [Compound I, 1-benzyl-6-(3,5-dimethylisoxazol-4-yl)-N-methyl-1H-imidazo[4,5-b]pyridine-2-amine]
[1]
  CI (combination index): 0.35
[2]; addition of Compound I to abemaciclib, five cell lines
  inhibition of cell viability, combination versus single agents: improved inhibition of cell viability compared to either single agent
[2]; combination with abemaciclib, depending upon the cell line (five cell lines)
  average CI value: 0.08-0.35
[3]
  CI (combination index): 0.14
[4]
  CI (combination index): 0.20
[5]
  CI (combination index): 0.30
[6]
  CI (combination index): 0.08
[7]; addition of Compound I to fulvestrant
  inhibition of cell viability, combination versus single agents: improved inhibition of cell viability compared to either single agent
[7]; combination with fulvestrant, charcoal-stripped FBS, phenol-red free media, average of CI at ED50, 75, 90 (Chou-Talalay)
  CI (combination index): 0.51
